# pKi: −log10 of the molar value. Counter-ions that a name gives are not always drawn.
# What was measured:
# [1] = biological target: T1, human norepinephrine transporter (Homo sapiens, UniProt P23975); assay: hNET receptor binding ([125I]-RTI-55 radioligand); conditions: membranes of HEK-293 cells transfected with human norepinephrine transporter cDNA; 50 pM [125I]-RTI-55; IC50 converted by Cheng-Prusoff; read-out: NET Ki
# T1 construct: expressed in transfected cells; host or cells: HEK-293
# Description: (§1) Cell pastes of HEK-293 cells transfected with a human norepinephrine transporter cDNA were prepared. The cell pastes were resuspended in 400 to 700 ml of Krebs-HEPES assay buffer (25 mM HEPES, 122 mM NaCl, 3 mM KCl, 1.2 mM MgSO4, 1.3 mM CaCl2, and 11 mM glucose, pH 7.4) with a Polytron homogenizer at setting 7 for 30 seconds. Aliquots of membranes (5 mg/ml protein) were stored in liquid nitrogen until used.
# The binding assay was set up in Beckman deep-well polypropylene plates with a total volume of 250 μl containing: test compound (10^−5M to 10^−12M), cell membranes, and 50 pM [^125I]-RTI-55 (Perkin Elmer, NEX-272; specific activity 2200 Ci/mmol). The reaction was incubated by gentle agitation for 90 minutes at room temperature and was terminated by filtration through Whatman GF/C filter plates using a Brandel 96-well plate harvester. Scintillation fluid (100 μl) was added to each well, and bound [^125I]-RTI-55 was determined using a Wallac Trilux Beta Plate Counter. Test compounds were run in duplicate, and specific binding was defined as the difference between binding in the presence and absence of 10 μM desipramine.
# Excel and GraphPad Prism software were used for data calculation and analysis. IC50 values were converted to K, values using the Cheng-Prusoff equation.
# [2] = biological target: T2, human serotonin transporter (Homo sapiens, UniProt P31645); assay: hSERT receptor binding ([125I]-RTI-55 radioligand); conditions: membranes of HEK-293 cells transfected with human serotonin transporter cDNA; 50 pM [125I]-RTI-55; IC50 converted by Cheng-Prusoff; read-out: SERT Ki
# T2 construct: expressed in transfected cells; host or cells: HEK-293
# T2 sequence (P31645 whole entry): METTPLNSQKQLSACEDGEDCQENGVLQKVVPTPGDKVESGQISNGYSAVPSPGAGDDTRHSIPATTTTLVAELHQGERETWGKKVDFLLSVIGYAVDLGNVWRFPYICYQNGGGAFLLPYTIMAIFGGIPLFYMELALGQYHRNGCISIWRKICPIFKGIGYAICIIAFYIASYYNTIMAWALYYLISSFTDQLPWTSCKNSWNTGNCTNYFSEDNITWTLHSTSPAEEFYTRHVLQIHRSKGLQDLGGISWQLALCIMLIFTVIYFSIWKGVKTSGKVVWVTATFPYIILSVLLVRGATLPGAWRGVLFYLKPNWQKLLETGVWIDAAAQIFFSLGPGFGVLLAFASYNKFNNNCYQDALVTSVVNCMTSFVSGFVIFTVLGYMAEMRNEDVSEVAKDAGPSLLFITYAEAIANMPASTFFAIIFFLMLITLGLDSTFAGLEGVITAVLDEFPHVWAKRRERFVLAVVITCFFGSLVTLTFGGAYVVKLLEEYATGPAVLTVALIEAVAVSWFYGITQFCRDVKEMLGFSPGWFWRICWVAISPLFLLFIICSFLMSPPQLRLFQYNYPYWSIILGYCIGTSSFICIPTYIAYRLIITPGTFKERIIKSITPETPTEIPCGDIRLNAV
# Description: as §1, with “serotonin” for “norepinephrine”, “Setting” for “setting”, “(˜2.5” for “(5”
# Assays were set up in FlashPlates pre-coated with 0.1% PEI in a total volume of 250 μl containing: test compound (10^−5M to 10^−12M), cell membranes, and 50 pM [^125I]-RTI-55 (Perkin Elmer, NEX-272; specific activity 2200 Ci/mmol). The reaction was incubated and gently agitated for 90 minutes at room temperature, and terminated by removal of assay volume. Plates were covered, and bound [^125I]-RTI-55 was determined using a Wallac Trilux Beta Plate Counter. Test compounds were run in duplicate, and specific binding was defined as the difference between binding in the presence and absence of 10 μM citalopram.
# Excel and GraphPad Prism software were used for data calculation and analysis. IC50 values were converted to Ki values using the Cheng-Prusoff equation.
# T1 sequence (P23975 whole entry): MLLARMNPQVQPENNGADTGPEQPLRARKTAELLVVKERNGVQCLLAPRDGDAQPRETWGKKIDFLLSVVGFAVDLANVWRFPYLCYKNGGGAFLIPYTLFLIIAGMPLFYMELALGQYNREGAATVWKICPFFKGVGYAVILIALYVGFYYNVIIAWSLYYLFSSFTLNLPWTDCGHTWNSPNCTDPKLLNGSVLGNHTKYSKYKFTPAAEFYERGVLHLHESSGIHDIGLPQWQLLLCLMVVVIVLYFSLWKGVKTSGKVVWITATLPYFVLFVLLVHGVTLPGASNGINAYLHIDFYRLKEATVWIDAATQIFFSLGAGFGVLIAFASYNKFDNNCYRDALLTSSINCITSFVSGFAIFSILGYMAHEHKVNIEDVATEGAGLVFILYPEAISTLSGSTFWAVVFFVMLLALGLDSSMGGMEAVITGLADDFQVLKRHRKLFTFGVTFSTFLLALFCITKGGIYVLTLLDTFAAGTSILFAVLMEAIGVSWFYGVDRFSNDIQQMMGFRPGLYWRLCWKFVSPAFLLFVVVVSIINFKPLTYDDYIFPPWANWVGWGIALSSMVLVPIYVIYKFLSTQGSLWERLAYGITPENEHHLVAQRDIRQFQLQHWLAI
structure (smiles),measurement,setting,value
"Cc1ccc(-c2ccccc2CO[C@H]2CCNC2)cc1 [Example A-2, (S)-3-(4′-Methyl-biphenyl-2-ylmethoxy)-pyrrolidine hydrochloride]",pKi,[1],8.12
same,pKi,[2],7.03
"Fc1ccc(-c2ccccc2CO[C@H]2CCNC2)cc1F [Example A-5, (S)-3-(3′-4′-Difluoro-biphenyl-2-ylmethyloxy)-pyrrolidine hydrochloride]",pKi,[1],7.95
same,pKi,[2],7.92
"c1ccc(-c2ccccc2CO[C@H]2CCNC2)cc1 [Example A-7, (S)-3-(Biphenyl-2-ylmethoxy)-pyrrolidine hydrochloride]",pKi,[1],7.87
same,pKi,[2],7.46
"Fc1ccc(-c2ccccc2CO[C@H]2CCNC2)cc1 [Example A-8, (S)-3-(4′-Fluoro-biphenyl-2-ylmethoxy)-pyrrolidine maleate]",pKi,[1],7.82
same,pKi,[2],7.69
"Fc1ccc(-c2ccccc2F)c(CO[C@H]2CCNC2)c1 [Example A-9, (S)-3-(4,2′-Difluoro-biphenyl-2-ylmethoxy)-pyrrolidine fumarate]",pKi,[1],7.75
same,pKi,[2],6.76
"COc1ccc(-c2ccccc2CO[C@H]2CCNC2)cc1C [Example A-10, (S)-3-(4′-Methoxy-3′-methyl-biphenyl-2-ylmethoxy)-pyrrolidine fumarate]",pKi,[1],7.64
same,pKi,[2],6.93
"Fc1ccc(-c2ccccc2CO[C@H]2CCNC2)cc1Cl [Example A-11, (S)-3-(3′-Chloro-4′-fluoro-biphenyl-2-ylmethoxy)-pyrrolidine hydrochloride]",pKi,[1],7.41
same,pKi,[2],7.99
"Cc1cc(F)ccc1-c1ccccc1CO[C@H]1CCNC1 [Example A-12, (S)-3-(4′-Fluoro-2′-methyl-biphenyl-2-ylmethoxy)-pyrrolidine hydrochloride]",pKi,[1],7.30
"Fc1ccc(-c2ccccc2CO[C@@H]2CCNC2)cc1F [Example A-13, (R)-3-(3′,4′-Difluoro-biphenyl-2-ylmethoxy)-pyrrolidine fumarate]",pKi,[1],7.18
same,pKi,[2],7.27
"c1ccc(-c2ccccc2CO[C@@H]2CCNC2)cc1 [Example A-14, (R)-3-(Biphenyl-2-ylmethoxy)-pyrrolidine hydrochloride]",pKi,[1],7.17
same,pKi,[2],6.69
"Fc1cccc(-c2ccccc2CO[C@@H]2CCNC2)c1F [Example A-15, (R)-3-(2′,3′-Difluoro-biphenyl-2-ylmethoxy)-pyrrolidine fumarate]",pKi,[1],7.09
same,pKi,[2],6.73
"Fc1ccccc1-c1ccccc1CO[C@@H]1CCNC1 [Example A-16, (R)-3-(2′-Fluoro-biphenyl-2-ylmethoxy)-pyrrolidine fumarate]",pKi,[1],7.05
same,pKi,[2],6.36
"CC(C)Oc1ccccc1-c1ccccc1CO[C@H]1CCNC1 [Example A-19, (S)-3-(2′-Isopropoxy-biphenyl-2-ylmethoxy)-pyrrolidine fumarate]",pKi,[1],6.95
same,pKi,[2],6.12
"Fc1ccc(-c2ccccc2CO[C@@H]2CCNC2)c(F)c1 [Example A-20, (R)-3-(2′,4′-Difluoro-biphenyl-2-ylmethoxy)-pyrrolidine fumarate]",pKi,[1],6.89
same,pKi,[2],6.51
"CSc1ccccc1-c1ccccc1CO[C@H]1CCNC1 [Example A-21, (S)-3-(2′-Methylsulfanyl-biphenyl-2-ylmethoxy)-pyrrolidine hydrochloride]",pKi,[1],6.21
same,pKi,[2],6.51
"COc1ccc(F)cc1-c1ccccc1CO[C@H]1CCNC1 [Example A-22, fumarate]",pKi,[1],≤ 5.00
same,pKi,[2],6.86
"Fc1ccc(-c2cc(F)ccc2CO[C@H]2CCNC2)c(F)c1 [Example A-23, (S)-(5,2′,4′-Trifluoro-biphenyl-2-ylmethoxy)-pyrrolidine hydrochloride]",pKi,[1],7.80
same,pKi,[2],6.99
"Fc1ccc(CO[C@H]2CCNC2)c(-c2cccc(F)c2F)c1 [Example A-24, (S)-(5,2′,3′-Trifluoro-biphenyl-2-ylmethoxy)-pyrrolidine hydrochloride]",pKi,[1],7.85
same,pKi,[2],6.63
"Fc1ccc(CO[C@H]2CCNC2)c(-c2ccccc2F)c1 [Example A-25, (S)-(5,2′-Difluoro-biphenyl-2-ylmethoxy)-pyrrolidine hydrochloride]",pKi,[1],7.58
same,pKi,[2],6.82
"Fc1cccc(-c2c(F)cccc2CO[C@H]2CCNC2)c1F [Example A-26, (S)-3-(6,2′,3′-Trifluoro-biphenyl-2-ylmethoxy)-pyrrolidine hydrochloride]",pKi,[1],7.51
same,pKi,[2],6.21
"c1cncc(-c2ccccc2CO[C@H]2CCNC2)c1 [Example A-27, (S)-3-[2-(Pyrrolidin-3-yloxymethyl)-phenyl]-pyridine hydrochloride]",pKi,[1],5.66
same,pKi,[2],6.68
"c1ccc(-c2ccncc2)c(CO[C@H]2CCNC2)c1 [Example A-28, (S)-4-[2-(Pyrrolidin-3-yloxymethyl)-phenyl]-pyridine hydrochloride]",pKi,[1],5.31
same,pKi,[2],5.75
"COc1ccc(-c2ccccc2CO[C@H]2CCNC2)cn1 [Example A-29, (S)-2-Methoxy-5-[2-(pyrrolidin-3-yloxymethyl)-phenyl]-pyridine fumarate]",pKi,[1],5.54
same,pKi,[2],5.61
"Fc1ccccc1-c1cccc(F)c1CO[C@H]1CCNC1 [Example A-30, (3S)-3-[(2′,3-difluorobiphenyl-2-yl)methoxy]pyrrolidine fumarate]",pKi,[1],7.10
same,pKi,[2],6.61
"Fc1cc(CO[C@H]2CCNC2)c(-c2cccc(F)c2F)cc1F [Example A-31, (3S)-3-[(2′,3′,4,5-tetrafluorobiphenyl-2-yl)methoxy]pyrrolidine fumarate]",pKi,[1],7.33
same,pKi,[2],6.85
"Fc1ccccc1-c1c(F)cccc1CO[C@H]1CCNC1 [Example A-32, (3S)-3-[(2′,6-difluorobiphenyl-2-yl)methoxy]pyrrolidine hydrochloride]",pKi,[1],7.62
same,pKi,[2],6.12
"Fc1cccc(-c2cccc(F)c2CO[C@H]2CCNC2)c1F [Example A-33, (3S)-3-[(2′,3,3′-trifluorobiphenyl-2-yl)methoxy]pyrrolidine fumarate]",pKi,[1],7.59
same,pKi,[2],7.00
"Fc1ccc(-c2c(F)cccc2CO[C@H]2CCNC2)c(F)c1 [Example A-34, (3S)-3-[(2′,4′,6-trifluorobiphenyl-2-yl)methoxy]pyrrolidine hydrochloride]",pKi,[1],7.63
same,pKi,[2],6.36
"Fc1ccc(-c2ncccc2CO[C@H]2CCNC2)c(F)c1 [Example B-1, (S)-2-(2,4-Difluoro-phenyl)-3-(pyrrolidin-3-yloxymethyl)-pyridine fumarate]",pKi,[1],5.99
same,pKi,[2],5.25
"Fc1cccc(-c2ncccc2CO[C@H]2CCNC2)c1F [Example B-2, (S)-2-(2,3-Difluoro-phenyl)-3-(pyrrolidin-3-yloxymethyl)-pyridine fumarate]",pKi,[1],6.69
same,pKi,[2],5.48
"Fc1ccc(-c2ncccc2CO[C@H]2CCNC2)cc1F [Example B-3, (S)-2-(3,4-Difluoro-phenyl)-3-(pyrrolidin-3-yloxymethyl)-pyridine fumarate]",pKi,[1],6.51
same,pKi,[2],5.92
"Fc1ccc(F)c(-c2cccnc2CO[C@H]2CCNC2)c1 [Example C-1, (S)-3-(2,5-Difluoro-phenyl)-2-(pyrrolidin-3-yloxymethyl)-pyridine fumarate]",pKi,[1],6.42
same,pKi,[2],6.97
"Fc1cccc(-c2cccnc2CO[C@H]2CCNC2)c1F [Example C-2, (S)-3-(2,3-Difluoro-phenyl)-2-(pyrrolidin-3-yloxymethyl)-pyridine fumarate]",pKi,[1],6.07
same,pKi,[2],7.13
"CCOc1cccc(-c2ccccc2CO[C@H]2CCNC2)c1 [Example D-1, (S)-3-(3′-Ethoxy-biphenyl-2-ylmethoxy)-pyrrolidine]",pKi,[1],8.32
same,pKi,[2],7.41
"Fc1ccc(Cl)cc1-c1ccccc1CO[C@H]1CCNC1 [Example D-9, (S)-3-(5′-Chloro-2′-fluoro-biphenyl-2-ylmethoxy)-pyrrolidine]",pKi,[2],7.15
"Cc1ccc(C)c(-c2ccccc2CO[C@H]2CCNC2)c1 [Example D-23, (S)-3-(2′,5′-Dimethyl-biphenyl-2-ylmethoxy)-pyrrolidine]",pKi,[2],6.81
"CCc1ccc(-c2ccccc2CO[C@H]2CCNC2)cc1 [Example D-39, (S)-(4′-Ethyl-biphenyl-2-ylmethoxy)-pyrrolidine]",pKi,[2],6.28
